Here are results for 22 molecules from BindingDB's records for doi:10.1021/jm030603w (Purdue Pharma, 2005).

In general, Ki refers to a dissociation constant, usually derived from enzyme kinetics or from competition with a known ligand. A low value points to tighter binding.

Assay in all cases: PDE Activity Assay
Experiment [1] deals with cAMP-specific 3',5'-cyclic phosphodiesterase 4A (Homo sapiens, UniProt P27815). To be noted: pH 8; 22 °C.
In experiment [2] the target is cAMP-specific 3',5'-cyclic phosphodiesterase 4B (Homo sapiens, UniProt Q07343).
Chain of cAMP-specific 3',5'-cyclic phosphodiesterase 4B (Q07343 whole entry): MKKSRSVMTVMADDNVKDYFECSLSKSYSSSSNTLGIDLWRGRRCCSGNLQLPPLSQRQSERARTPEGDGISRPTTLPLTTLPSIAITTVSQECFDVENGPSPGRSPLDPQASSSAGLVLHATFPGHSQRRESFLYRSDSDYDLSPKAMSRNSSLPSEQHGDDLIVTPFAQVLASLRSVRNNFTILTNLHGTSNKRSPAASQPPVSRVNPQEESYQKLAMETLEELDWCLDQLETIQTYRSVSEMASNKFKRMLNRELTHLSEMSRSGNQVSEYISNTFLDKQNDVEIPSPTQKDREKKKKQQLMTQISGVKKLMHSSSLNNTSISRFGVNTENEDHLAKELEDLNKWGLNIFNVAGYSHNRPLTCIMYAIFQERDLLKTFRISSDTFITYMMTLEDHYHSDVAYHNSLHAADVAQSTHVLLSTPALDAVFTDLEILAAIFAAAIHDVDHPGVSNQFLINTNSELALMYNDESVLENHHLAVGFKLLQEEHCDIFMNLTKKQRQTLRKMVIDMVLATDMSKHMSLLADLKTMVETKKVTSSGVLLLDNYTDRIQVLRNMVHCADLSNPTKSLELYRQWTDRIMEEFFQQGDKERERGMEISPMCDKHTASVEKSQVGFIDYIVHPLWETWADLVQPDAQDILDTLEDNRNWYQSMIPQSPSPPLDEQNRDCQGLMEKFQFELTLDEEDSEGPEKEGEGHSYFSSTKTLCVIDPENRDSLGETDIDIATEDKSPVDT
Experiment [3] deals with cAMP-specific 3',5'-cyclic phosphodiesterase 4D (Homo sapiens, UniProt Q08499).
Chain of cAMP-specific 3',5'-cyclic phosphodiesterase 4D (Q08499 whole entry): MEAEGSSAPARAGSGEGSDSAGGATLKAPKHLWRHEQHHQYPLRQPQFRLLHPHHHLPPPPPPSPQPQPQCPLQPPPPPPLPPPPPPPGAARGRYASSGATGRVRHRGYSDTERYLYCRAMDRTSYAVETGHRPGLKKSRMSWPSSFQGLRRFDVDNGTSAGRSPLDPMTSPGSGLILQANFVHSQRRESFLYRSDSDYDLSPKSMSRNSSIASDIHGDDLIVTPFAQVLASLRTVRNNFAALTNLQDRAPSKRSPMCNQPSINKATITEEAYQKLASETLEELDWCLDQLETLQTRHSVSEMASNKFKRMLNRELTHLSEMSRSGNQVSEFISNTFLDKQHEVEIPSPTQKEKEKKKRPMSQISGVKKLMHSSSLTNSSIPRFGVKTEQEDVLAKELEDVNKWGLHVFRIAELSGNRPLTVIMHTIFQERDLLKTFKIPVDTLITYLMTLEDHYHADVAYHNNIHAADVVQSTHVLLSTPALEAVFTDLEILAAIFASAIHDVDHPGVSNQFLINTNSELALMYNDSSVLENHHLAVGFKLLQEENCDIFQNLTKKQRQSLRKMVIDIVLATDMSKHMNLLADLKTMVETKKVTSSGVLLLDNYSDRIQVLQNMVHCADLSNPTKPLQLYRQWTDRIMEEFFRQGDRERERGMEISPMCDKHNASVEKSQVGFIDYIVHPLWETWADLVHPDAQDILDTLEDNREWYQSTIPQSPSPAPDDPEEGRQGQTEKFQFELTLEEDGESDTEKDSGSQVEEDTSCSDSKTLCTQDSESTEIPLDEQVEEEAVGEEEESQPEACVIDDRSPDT

Where “and” joins values, the source holds several entries; their conditions need not be identical. Equal values may be shown once. Where a name gives a salt, the structure may show the parent alone.

Chain of cAMP-specific 3',5'-cyclic phosphodiesterase 4A (P27815 whole entry): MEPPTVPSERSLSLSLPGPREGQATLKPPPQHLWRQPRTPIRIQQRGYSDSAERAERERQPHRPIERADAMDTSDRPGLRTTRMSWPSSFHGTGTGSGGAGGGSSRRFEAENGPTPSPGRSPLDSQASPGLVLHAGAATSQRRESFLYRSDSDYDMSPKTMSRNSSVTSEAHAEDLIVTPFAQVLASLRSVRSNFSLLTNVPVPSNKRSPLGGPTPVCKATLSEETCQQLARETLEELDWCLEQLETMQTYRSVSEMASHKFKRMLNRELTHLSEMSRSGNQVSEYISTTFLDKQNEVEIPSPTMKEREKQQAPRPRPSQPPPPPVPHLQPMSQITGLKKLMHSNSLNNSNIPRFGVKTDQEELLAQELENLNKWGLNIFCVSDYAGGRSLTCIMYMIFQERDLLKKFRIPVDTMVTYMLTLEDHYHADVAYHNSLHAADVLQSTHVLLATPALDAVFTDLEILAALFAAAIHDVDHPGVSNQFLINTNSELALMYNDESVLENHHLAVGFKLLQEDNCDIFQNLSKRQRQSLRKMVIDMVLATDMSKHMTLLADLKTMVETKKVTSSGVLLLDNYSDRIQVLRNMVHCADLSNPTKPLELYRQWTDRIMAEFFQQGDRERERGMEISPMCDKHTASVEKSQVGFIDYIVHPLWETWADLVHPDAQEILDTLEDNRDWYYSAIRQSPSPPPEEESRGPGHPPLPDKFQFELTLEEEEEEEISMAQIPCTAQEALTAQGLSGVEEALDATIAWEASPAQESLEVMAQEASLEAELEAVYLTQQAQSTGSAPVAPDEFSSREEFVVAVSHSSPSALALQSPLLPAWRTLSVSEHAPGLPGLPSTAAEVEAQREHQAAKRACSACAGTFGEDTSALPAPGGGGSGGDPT

With `COc1ccc(COC(C)(C)c2nc3c(N)ncn(Cc4ccc(OC)c(OC5CCCC5)c4)c-3n2)cc1` [3-{[3-(cyclopentyloxy)-4-methoxyphenyl]methyl}-8-{2-[(4-methoxyphenyl)methoxy]propan-2-yl}-3H-purin-6-amine], the Ki was determined as 113 nM in experiment [1] and 10.3 nM in experiment [2].

For the molecule `COc1ccc(Cn2cnc(N)c3nc(C(C)(C)OCc4cccc(F)c4)nc2-3)cc1OC1CCCC1` [3-(3-Cyclopentyloxy-4-methoxy-benzyl)-8-[1-(3-fluoro-benzyloxy)-1-methyl-ethyl]-3H-purin-6-ylamine], the Ki stood at 208 nM in experiment [1] and 11.6 nM in experiment [2].

As to `COc1ccc(Cn2cnc(N)c3nc(C(C)OCc4ccccc4)nc2-3)cc1OC1CCCC1` (stereo not given) [8-[1-(benzyloxy)ethyl]-3-{[3-(cyclopentyloxy)-4-methoxyphenyl]methyl}-3H-purin-6-amine], the Ki in experiment [1] is 15200 nM; in experiment [2], 533 nM; in experiment [3] it was 4450 nM and 640 nM and 590 nM.

As to `COc1ccc(Cn2cnc(N)c3nc(C(C)(C)OCc4ccc5c(c4)OCO5)nc2-3)cc1OC1CCCC1` [3-(3-Cyclopentyloxy-4-methoxy-benzyl)-8-[1-(3,4-methylenedioxy-benzyloxy)-1-methyl-ethyl]-3Hpurin-6-ylamine], the Ki stood at 147 nM in experiment [1] and 21.4 nM in experiment [2].

With `COc1ccc(Cn2cnc(N)c3nc(C(C)(C)OCc4ccc(C#N)cc4)nc2-3)cc1OC1CCCC1` [3-(3-Cyclopentyloxy-4-methoxy-benzyl)-8-[1-(4-cyano-benzyloxy)-1-methyl-ethyl]-3Hpurin-6-ylamine], the Ki in experiment [1] amounted to 1190 nM; in experiment [2] it was 71.3 nM.

Turning to `COc1ccc(Cn2cnc(N)c3nc(C(C)(C)OCc4ccccc4)nc2-3)cc1OC1CCCC1` [8-[2-(benzyloxy)propan-2-yl]-3-{[3-(cyclopentyloxy)-4-methoxyphenyl]methyl}-3H-purin-6-amine hydrochloride], the Ki in experiment [1] is 179 nM; in experiment [2], 8.9 nM.

On to `COc1ccc(Cn2cnc(N)c3nc(C(C)(C)OCc4ccc(C(C)(C)C)cc4)nc2-3)cc1OC1CCCC1` [3-(3-Cyclopentyloxy-4-methoxy-benzyl)-8-[1-(4-tert-butyl-benzyloxy)-1-methyl-ethyl]-3Hpurin-6-ylamine], for which the inhibition constant Ki is 175 nM in experiment [1] and 5.8 nM in experiment [2].

For the molecule `COc1ccc(Cn2cnc(N)c3nc(C(C)(C)OCc4ccc(OC(F)(F)F)cc4)nc2-3)cc1OC1CCCC1` [3-{[3-(cyclopentyloxy)-4-methoxyphenyl]methyl}-8-(2-{[4-(trifluoromethoxy)phenyl]methoxy}propan-2-yl)-3H-purin-6-amine], the values for the inhibition constant Ki in experiment [1] and in experiment [2] were 415 nM and 26.6 nM, respectively.

As for `COc1ccccc1COC(C)(C)c1nc2c(N)ncn(Cc3ccc(OC)c(OC4CCCC4)c3)c-2n1` [3-(3-Cyclopentyloxy-4-methoxy-benzyl)-8-[1-(2-methoxy-benzyloxy)-1-methyl-ethyl]-3H-purine-6-ylamine], the inhibition constant Ki in experiment [1] came out at 137 nM; in experiment [2], 11 nM.

For `COc1ccc(COC(C)(C)c2nc3c(N)ncn(Cc4ccc(OC)c(OC5CCCC5)c4)c-3n2)cc1OC` [3-(3-Cyclopentyloxy-4-methoxy-benzyl)-8-[1-(3,4-dimethoxy-benzyloxy)-1-methyl-ethyl]-3Hpurin-6-ylamine Fumarate], the Ki came out at 405 nM in experiment [1] and 42.8 nM in experiment [2].

As for `COc1ccc(Cn2cnc(N)c3nc(C(C)OCc4ccc(F)cc4)nc2-3)cc1OC1CCCC1` (stereo not given) [3-{[3-(cyclopentyloxy)-4-methoxyphenyl]methyl}-8-{1-[(4-fluorophenyl)methoxy]ethyl}-3H-purin-6-amine], the Ki in experiment [1] is 3390 nM; in experiment [2] it was 269 nM.

In the case of `COc1ccc(Cn2cnc(N)c3nc(C(C)(C)OCc4ccc(C(F)(F)F)cc4)nc2-3)cc1OC1CCCC1` [3-{[3-(cyclopentyloxy)-4-methoxyphenyl]methyl}-8-(2-{[4-(trifluoromethyl)phenyl]methoxy}propan-2-yl)-3H-purin-6-amine], the Ki in experiment [1] turned out to be 309 nM; in experiment [2], 33 nM.

Take `COc1ccc(Cn2cnc(N)c3nc(C(C)(C)OCc4ccccc4F)nc2-3)cc1OC1CCCC1` [3-{[3-(cyclopentyloxy)-4-methoxyphenyl]methyl}-8-{2-[(2-fluorophenyl)methoxy]propan-2-yl}-3H-purin-6-amine]: the Ki is 271 nM in experiment [1] and 18.9 nM in experiment [2].

On to `COc1ccc(Cn2cnc(N)c3nc(C(C)(C)COc4cccs4)nc2-3)cc1OC1CCCC1` [3-{[3-(cyclopentyloxy)-4-methoxyphenyl]methyl}-8-[2-methyl-1-(thiophen-2-yloxy)propan-2-yl]-3H-purin-6-amine], for which the Ki in experiment [1] is 236 nM; in experiment [2], 46.9 nM.

Take `COc1ccc(Cn2cnc(N)c3nc(C(C)(C)OCc4ccc(Cl)cc4)nc2-3)cc1OC1CCCC1` [8-{1-[(4-Chlorobenzyl)oxy]-1-methyl-ethyl}-3-[3-cyclopentyloxy)-4-methoxybenzyl]-3H-purin-6-amine]: the values for the Ki in experiment [1] and in experiment [2] were 126 nM and 11 nM, respectively.

`COc1ccc(Cn2cnc(N)c3nc(C(C)(C)OCc4ccc(F)c(F)c4)nc2-3)cc1OC1CCCC1` [3-(3-Cyclopentyloxy-4-methoxy-benzyl)-8-[1-(3,4-difluoro-benzyloxy)-1-methyl-ethyl]-3Hpurin-6-ylamine Fumarate]: the Ki came out at 244 nM in experiment [1] and 17.3 nM in experiment [2].

Turning to `COc1ccc(Cn2cnc(N)c3nc(C(C)(C)OCc4ccc(C)cc4)nc2-3)cc1OC1CCCC1` [3-(3-Cyclopentyloxy-4-methoxy-benzyl)-8-[1-(4-methyl-benzyloxy)-1-methyl-ethyl]-3H-purin-6-ylamine], the values for the Ki in experiment [1] and in experiment [2] were 206 nM and 9.8 nM, respectively.

Consider `COc1ccc(COC(C)c2nc3c(N)ncn(Cc4ccc(OC)c(OC5CCCC5)c4)c-3n2)cc1` (stereo not given) [3-(3-Cyclopentyloxy-4-methoxy-benzyl)-8-[1-(4-methoxy-benzyloxy)-ethyl]-3H-purin-6-ylamine], for which the figures for the Ki in experiment [1] and in experiment [2] were 5200 nM and 430 nM, respectively.

With `COc1cccc(COC(C)(C)c2nc3c(N)ncn(Cc4ccc(OC)c(OC5CCCC5)c4)c-3n2)c1` [3-{[3-(cyclopentyloxy)-4-methoxyphenyl]methyl}-8-{2-[(3-methoxyphenyl)methoxy]propan-2-yl}-3H-purin-6-amine], the Ki in experiment [1] amounted to 175 nM; in experiment [2], 13 nM.

Regarding `COc1cc(COC(C)(C)c2nc3c(N)ncn(Cc4ccc(OC)c(OC5CCCC5)c4)c-3n2)cc(OC)c1` [(2E)-but-2-enedioic acid; 3-{[3-(cyclopentyloxy)-4-methoxyphenyl]methyl}-8-{2-[(3,5-dimethoxyphenyl)methoxy]propan-2-yl}-3H-purin-6-amine], the inhibition constant Ki in experiment [1] was determined as 225 nM; in experiment [2], 21.9 nM.

`COc1ccc(Cn2cnc(N)c3nc(C(C)(C)OCc4ccc(Cl)c(Cl)c4)nc2-3)cc1OC1CCCC1` [3-{[3-(cyclopentyloxy)-4-methoxyphenyl]methyl}-8-{2-[(3,4-dichlorophenyl)methoxy]propan-2-yl}-3H-purin-6-amine]: the values for the Ki in experiment [1] and in experiment [2] were 166 nM and 9.7 nM, respectively.

In the case of `COc1ccc(Cn2cnc(N)c3nc(C(C)(C)COc4ccsc4)nc2-3)cc1OC1CCCC1` [3-{[3-(cyclopentyloxy)-4-methoxyphenyl]methyl}-8-[2-methyl-1-(thiophen-3-yloxy)propan-2-yl]-3H-purin-6-amine], the Ki in experiment [1] worked out at 223 nM; in experiment [2], 9.5 nM.
